Biological target: T1, TRPC4 (Mus musculus, UniProt Q9QUQ5)
T1 construct: native channel in murine sigmoid colonic myocytes
T1 sequence (Q9QUQ5 1-974): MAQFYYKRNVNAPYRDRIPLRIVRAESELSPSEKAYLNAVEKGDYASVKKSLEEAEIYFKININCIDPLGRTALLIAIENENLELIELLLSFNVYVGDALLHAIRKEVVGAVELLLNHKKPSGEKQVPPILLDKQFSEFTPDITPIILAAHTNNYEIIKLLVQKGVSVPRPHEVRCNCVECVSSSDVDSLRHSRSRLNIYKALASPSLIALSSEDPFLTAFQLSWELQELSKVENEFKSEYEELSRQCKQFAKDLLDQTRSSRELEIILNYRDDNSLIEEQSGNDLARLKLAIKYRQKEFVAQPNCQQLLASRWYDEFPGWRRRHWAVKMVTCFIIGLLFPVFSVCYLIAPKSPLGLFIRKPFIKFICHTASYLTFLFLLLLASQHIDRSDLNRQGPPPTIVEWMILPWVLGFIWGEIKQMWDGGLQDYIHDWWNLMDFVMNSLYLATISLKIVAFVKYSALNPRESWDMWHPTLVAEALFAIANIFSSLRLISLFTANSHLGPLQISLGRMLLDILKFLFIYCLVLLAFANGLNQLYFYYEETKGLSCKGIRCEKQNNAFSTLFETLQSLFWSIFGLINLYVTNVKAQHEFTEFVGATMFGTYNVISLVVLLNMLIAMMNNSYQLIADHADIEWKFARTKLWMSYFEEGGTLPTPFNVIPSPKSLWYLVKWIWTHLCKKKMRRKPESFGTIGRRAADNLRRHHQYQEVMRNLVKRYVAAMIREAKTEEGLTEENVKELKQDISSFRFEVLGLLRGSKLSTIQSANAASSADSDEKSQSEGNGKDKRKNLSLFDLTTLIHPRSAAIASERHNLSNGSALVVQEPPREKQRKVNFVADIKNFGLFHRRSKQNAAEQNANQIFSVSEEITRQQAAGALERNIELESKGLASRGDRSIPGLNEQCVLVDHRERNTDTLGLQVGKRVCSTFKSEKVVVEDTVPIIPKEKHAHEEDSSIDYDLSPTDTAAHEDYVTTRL
Assay: whole-cell patch clamp of CCh-evoked mIcat in murine colonic myocytes, […] Pico145; current absent in TRPC4-deficient mice
Assay type: cell-based

## Cn1c(=O)n(CCCO)c(=O)c2c1nc(Oc1cccc(OC(F)(F)F)c1)n2Cc1ccc(Cl)cc1 [Pico145]
  whole-cell patch clamp of CCh-evoked mIcat in murine colonic myocytes, 100 nM Pi: The selective and potent antagonist of TRPC4, Pico145, completely blocked the CCh‐evoked current.
